For data set [1], the target named is Amyloid-beta precursor protein (Homo sapiens) (UniProt P05067). Put plainly: Inhibition of HFIP-pretreated amyloid beta (1 to 42) (unknown origin) aggregation at 10 uM after 36 to 48 hrs by thioflavin-T fluorescence assay relative to control. The note with it: time 36-48 hrs.
In data set [2] the target is Acetylcholinesterase (Electrophorus electricus) (UniProt O42275). Put plainly: Inhibition of electric eel AChE at 10 uM using acetylthiocholine as substrate preincubated for 5 mins followed by substrate addition and measured after 5 mins by Ellman's method relative to control. The note with it: time 10.0 min. Background: DTNB colorimetry detects thiols as they appear.

Another data set deals with Beta-secretase 1 (Homo sapiens, UniProt P56817). The note with it: dose 50.0 µM, time 60.0 min.
Data set [3] has as its target Cholinesterase (Equus caballus) (UniProt P81908). Put plainly: Noncompetitive inhibition of equine serum BuChE assessed as decrease in Vmax with constant Km using varying concentrations of BTC as substrate by Lineweaver-burk and Cornish-Bowden plot analysis.
Data set [4] has as its target Sodium- and chloride-dependent GABA transporter 1 (Mus musculus, UniProt P31648). Nature of the data set: Inhibition of mouse GAT1 expressed in HEK293 cell line assessed as reduction in [3H]GABA uptake incubated for 10 mins. The format is cell-based.
Data set [5] addresses T1, GABA transporter 4 (Mus musculus) (UniProt P31650).
T1 sequence (whole entry): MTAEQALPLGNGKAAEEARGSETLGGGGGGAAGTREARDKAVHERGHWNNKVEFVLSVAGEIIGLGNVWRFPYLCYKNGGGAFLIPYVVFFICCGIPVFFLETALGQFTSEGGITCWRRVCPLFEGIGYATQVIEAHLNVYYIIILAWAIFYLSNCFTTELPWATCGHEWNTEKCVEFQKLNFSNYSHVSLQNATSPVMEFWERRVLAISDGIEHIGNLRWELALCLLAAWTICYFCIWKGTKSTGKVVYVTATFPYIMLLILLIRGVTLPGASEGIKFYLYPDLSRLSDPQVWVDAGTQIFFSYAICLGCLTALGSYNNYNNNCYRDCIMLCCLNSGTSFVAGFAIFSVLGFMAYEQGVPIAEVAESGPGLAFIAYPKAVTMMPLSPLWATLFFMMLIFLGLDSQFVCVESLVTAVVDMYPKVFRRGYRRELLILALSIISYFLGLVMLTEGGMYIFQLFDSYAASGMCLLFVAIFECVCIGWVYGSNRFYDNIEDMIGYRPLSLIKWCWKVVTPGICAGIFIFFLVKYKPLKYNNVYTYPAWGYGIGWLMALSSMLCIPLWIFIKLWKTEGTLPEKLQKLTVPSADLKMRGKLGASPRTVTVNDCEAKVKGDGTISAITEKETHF
Nature of the data set: Inhibition of mouse GAT3 expressed in HEK293 cell line assessed as reduction in [3H]GABA uptake at 100 uM incubated for 10 mins relative to control. It counts as cell-based.

The target of a further data set is T2, GABA transporter 4 (Mus musculus, UniProt P31650).
T2 sequence (P31650 whole entry): T1 sequence (whole entry)
Nature of the data set: Inhibition of mouse GAT4 expressed in HEK293 cell line assessed as reduction in [3H]GABA uptake incubated for 10 mins. It counts as cell-based.

Data set [6] concerns the target Sodium- and chloride-dependent GABA transporter 1 (Mus musculus) (UniProt P31648). Put plainly: Inhibition of NO711 binding to mouse GAT1 expressed in HEK cell membranes at 100 uM incubated for 40 mins in presence of NO711 by LC-ESI-MS/MS analysis relative to control. As to conditions: Membrane.
The nature of data set [7]: Neurotoxicity against mouse HT22 cells assessed as cell viability at 10 uM incubated for 24 hrs by MTT assay. The format is cell-based, HT-22. The note with it: ht-22, 24 h, 10 µM. (Tetrazolium assays rely on reduction of a dye to a coloured formazan, in cell work by metabolically active cells.)
Data set [8] can be described thus: Neurotoxicity against mouse HT22 cells assessed as cell viability at 30 uM incubated for 24 hrs by MTT assay. The format is cell-based, HT-22. The note with it: ht-22, 24 h, 30 µM.
Data set [9] in a line: Hepatotoxicity in human HepG2 cells at 50 to 100 uM incubated for 72 hrs by MTS assay. It counts as cell-based. As to conditions: hepg2, 72 h, dose 50-100 µM.
A short description of data set [10]: Hepatotoxicity in human HepG2 cells at 1 uM incubated for 72 hrs by MTS assay. The format is cell-based. The note with it: hepg2, 72 h.
The nature of data set [11]: Hepatotoxicity in human HepG2 cells at 10 uM incubated for 72 hrs by MTS assay. The format is cell-based. The note with it: hepg2, 72 h.
Data set [12] is described as follows: Metabolic stability in human liver microsomes assessed as parent compound remaining after 120 mins in presence of NADPH regeneration system by UPLC/MS anlaysis. It counts as ADME, Microsome. The note with it: read-out: Stabilty.
For the next data set, the target named is Cytochrome P450 3A4 (Homo sapiens, UniProt P08684). Nature of the data set: Inhibition of CYP3A4 (unknown origin) at 10 uM. It counts as ADME.
Another data set has as its target Cytochrome P450 2D6 (Homo sapiens, UniProt P10635). Put plainly: Inhibition of CYP2D6 (unknown origin) at 10 uM. It counts as ADME.
For data set [13], the target named is Cholinesterase (Equus caballus, UniProt P81908).
Description: Inhibition of equine serum BuChE using butyrylthiocholine as substrate preincubated for 5 mins followed by substrate addition and measured after 5 mins by Ellman's method
For data set [14], the target named is Cholinesterase (Homo sapiens, UniProt P06276).
Description: Inhibition of human BuchE using butyrylthiocholine as substrate preincubated for 5 mins followed by substrate addition and measured after 5 mins by Ellman's method

This is an account of results in ChEMBL document CHEMBL4819069, “Discovery of multifunctional anti-Alzheimer's agents with a unique mechanism of action including inhibition of the enzyme butyrylcholinesterase and γ-aminobutyric acid transporters” (Eur J Med Chem, 2021).

SMILES strings stand for the structures. Activity calls are given as the source filed them. No cut-off for these calls is given here.

Sequence of Cholinesterase (Equus caballus, UniProt P81908) (P81908 whole entry): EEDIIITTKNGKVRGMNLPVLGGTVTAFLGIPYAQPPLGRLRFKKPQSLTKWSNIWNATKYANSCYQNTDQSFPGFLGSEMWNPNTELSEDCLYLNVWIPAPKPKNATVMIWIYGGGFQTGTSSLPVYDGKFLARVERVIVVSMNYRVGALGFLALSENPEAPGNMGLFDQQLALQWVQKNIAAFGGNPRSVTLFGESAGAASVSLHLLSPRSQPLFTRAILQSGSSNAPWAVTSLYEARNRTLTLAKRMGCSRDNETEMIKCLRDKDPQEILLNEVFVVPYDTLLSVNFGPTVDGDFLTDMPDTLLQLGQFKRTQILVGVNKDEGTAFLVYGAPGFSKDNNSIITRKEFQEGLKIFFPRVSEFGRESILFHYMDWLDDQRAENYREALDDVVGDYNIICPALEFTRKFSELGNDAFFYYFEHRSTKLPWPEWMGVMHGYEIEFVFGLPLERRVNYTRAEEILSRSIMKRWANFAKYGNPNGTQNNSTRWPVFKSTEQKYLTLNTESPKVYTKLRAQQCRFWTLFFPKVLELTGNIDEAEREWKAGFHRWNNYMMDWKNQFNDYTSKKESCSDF
Sequence of Cholinesterase (Equus caballus) (P81908 whole entry): as above
Sequence of Acetylcholinesterase (Electrophorus electricus) (O42275 24-633 limits assumed): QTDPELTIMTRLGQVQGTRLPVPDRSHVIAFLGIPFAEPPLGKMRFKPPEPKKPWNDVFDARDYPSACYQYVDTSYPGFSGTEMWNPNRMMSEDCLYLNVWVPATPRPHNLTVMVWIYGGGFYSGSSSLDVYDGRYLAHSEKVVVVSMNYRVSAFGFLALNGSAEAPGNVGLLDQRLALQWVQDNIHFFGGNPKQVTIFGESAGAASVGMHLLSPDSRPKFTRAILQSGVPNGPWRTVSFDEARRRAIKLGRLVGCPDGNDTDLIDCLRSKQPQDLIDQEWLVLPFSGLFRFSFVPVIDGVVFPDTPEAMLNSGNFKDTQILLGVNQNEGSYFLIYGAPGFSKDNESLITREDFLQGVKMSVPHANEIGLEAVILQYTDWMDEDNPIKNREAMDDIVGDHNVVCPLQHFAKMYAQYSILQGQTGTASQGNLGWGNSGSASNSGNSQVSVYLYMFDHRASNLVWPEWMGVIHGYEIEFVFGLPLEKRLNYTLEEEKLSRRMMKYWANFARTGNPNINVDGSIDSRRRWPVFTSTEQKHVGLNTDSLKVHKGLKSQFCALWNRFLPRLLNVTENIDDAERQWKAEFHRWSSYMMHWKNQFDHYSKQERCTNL
Sequence of Cytochrome P450 3A4 (P08684 whole entry): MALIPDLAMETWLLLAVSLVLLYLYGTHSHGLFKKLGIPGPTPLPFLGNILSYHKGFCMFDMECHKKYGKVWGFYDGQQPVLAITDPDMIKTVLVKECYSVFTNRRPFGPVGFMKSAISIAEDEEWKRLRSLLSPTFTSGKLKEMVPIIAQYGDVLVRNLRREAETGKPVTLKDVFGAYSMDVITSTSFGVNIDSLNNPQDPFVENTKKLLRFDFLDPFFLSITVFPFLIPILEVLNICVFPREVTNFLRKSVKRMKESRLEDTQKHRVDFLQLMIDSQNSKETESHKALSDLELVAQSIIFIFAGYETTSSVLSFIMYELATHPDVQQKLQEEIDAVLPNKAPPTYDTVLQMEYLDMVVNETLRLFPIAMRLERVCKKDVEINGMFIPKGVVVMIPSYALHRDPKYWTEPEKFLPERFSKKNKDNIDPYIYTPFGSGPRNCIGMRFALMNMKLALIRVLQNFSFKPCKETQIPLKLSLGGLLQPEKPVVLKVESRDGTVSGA
Sequence of Cholinesterase (Homo sapiens, UniProt P06276) (P06276 whole entry): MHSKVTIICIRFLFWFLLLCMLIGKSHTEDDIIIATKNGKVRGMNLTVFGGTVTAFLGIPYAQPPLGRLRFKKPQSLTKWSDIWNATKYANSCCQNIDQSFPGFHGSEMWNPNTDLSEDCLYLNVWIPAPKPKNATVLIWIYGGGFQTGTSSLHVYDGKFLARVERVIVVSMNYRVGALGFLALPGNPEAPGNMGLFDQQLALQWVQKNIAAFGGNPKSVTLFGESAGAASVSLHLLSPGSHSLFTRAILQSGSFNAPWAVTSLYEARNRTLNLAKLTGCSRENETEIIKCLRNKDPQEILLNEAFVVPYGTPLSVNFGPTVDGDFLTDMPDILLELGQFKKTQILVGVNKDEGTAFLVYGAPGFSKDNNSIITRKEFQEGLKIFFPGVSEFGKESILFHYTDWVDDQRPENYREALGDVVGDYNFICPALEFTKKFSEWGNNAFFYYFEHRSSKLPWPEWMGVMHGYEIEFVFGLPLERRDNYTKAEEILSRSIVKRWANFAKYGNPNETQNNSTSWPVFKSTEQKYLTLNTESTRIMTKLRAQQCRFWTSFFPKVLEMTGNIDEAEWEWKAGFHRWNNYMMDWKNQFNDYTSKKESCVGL
Sequence of Amyloid-beta precursor protein (Homo sapiens) (P05067 whole entry): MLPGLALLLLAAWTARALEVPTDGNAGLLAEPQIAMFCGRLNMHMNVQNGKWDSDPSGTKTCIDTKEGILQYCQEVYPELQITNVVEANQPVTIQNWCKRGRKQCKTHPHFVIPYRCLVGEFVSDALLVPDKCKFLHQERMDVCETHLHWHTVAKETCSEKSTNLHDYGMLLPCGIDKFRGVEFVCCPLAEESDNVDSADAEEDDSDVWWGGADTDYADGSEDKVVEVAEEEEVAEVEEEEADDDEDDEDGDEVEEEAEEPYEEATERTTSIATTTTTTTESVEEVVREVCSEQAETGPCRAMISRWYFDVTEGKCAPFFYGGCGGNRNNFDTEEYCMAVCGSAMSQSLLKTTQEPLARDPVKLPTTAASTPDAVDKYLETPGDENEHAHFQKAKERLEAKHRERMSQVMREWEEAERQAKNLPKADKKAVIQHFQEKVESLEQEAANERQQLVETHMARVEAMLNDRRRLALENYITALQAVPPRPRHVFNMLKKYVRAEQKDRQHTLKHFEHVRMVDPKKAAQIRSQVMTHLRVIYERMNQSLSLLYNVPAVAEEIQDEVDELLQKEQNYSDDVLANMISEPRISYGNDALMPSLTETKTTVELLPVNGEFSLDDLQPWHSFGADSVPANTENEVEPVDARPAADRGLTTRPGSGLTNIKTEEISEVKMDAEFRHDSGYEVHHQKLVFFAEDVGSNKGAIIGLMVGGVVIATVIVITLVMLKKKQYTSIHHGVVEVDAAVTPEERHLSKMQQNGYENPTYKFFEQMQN
Sequence of Beta-secretase 1 (P56817 whole entry): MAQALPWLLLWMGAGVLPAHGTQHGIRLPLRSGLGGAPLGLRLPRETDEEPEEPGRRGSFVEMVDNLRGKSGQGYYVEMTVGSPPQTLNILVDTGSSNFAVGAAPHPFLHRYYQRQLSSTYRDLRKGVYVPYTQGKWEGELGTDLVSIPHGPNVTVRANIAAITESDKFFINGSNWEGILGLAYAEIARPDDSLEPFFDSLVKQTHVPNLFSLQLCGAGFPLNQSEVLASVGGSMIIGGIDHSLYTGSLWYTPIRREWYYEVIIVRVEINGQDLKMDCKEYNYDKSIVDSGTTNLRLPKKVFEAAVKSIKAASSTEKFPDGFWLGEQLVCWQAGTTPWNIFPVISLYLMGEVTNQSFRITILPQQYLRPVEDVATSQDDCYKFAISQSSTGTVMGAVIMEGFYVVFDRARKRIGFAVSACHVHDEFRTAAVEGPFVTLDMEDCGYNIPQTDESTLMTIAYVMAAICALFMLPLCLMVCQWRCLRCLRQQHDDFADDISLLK

The term inhibition denotes the change of the read-out against control, counted positive when it falls. In general, IC50 refers to the concentration needed to halve the response being measured. As to `CC(C)(C)CNC[C@@H](O)[C@H](Cc1ccccc1)NC(=O)C(c1ccccc1)c1ccccc1`, the inhibition was 20.5% in data set [1]; under 10% in [2]; 40% against Beta-secretase 1; 54% in data set [5]; 71% in data set [6]. The inhibition entry in data set [3] was “Active”. For the same compound, the IC50 in data set [4] is 25.1 µM; at GABA transporter 4, 30.9 µM; at Cholinesterase [13], 0.1 µM; against Cholinesterase [14], 0.45 µM. The Activity entry was “Non-Toxic” in data set [7]; “Toxic” in data set [8]; “Toxic” in data set [9]; “Non-Toxic” in data set [10]; “Non-Toxic” in data set [11]. The remaining at 2 h in data set [12] is 79.2%. Besides, the “inhibition (INH)” value on Cytochrome P450 3A4 and on Cytochrome P450 2D6 was “Active” each time.
